Measured values as given in US9421222B2, “Treatment of compartment syndrome” (LONDON HEALTH SCIENCES CENTRE RESEARCH INC., priority 2013, dated 2016).
“Also recorded” adds a separate entry of the source.

Columns and labels:
Type in all cases: in vivo
[1] = test system: CS-challenged skeletal muscle (EDL); assay: Rat compartment syndrome model, intravital video microscopy (IVVM) of EDL muscle
From the text: (§1) The experimental protocol was approved by the Council on Animal Care of the University of Western Ontario, and has been previously described in detail. Briefly, male Wistar rats (body weight 180-250 g) were anesthetized by inhalational isoflurane (5% induction, 2% maintenance) in 1:1 oxygen/nitrogen mixture. Left carotid artery was cannulated to allow for the monitoring of systemic blood pressure, fluid administration and blood sampling.
(§2) Compartment pressure monitoring probe (Synthes, Westchester Pa.) was inserted into the posterior compartment via gauge 16 angiocatheter (BD), while gauge 24 angiocatheter (BD) attached to an IV line was placed into the anterior compartment of the rat hind limb. CS was induced by an infusion of isotonic saline, leading to an elevation of intra-compartmental pressure (ICP) to 30 mmHg. Elevated ICP was maintained for 2 hours. Fasciotomy was performed to decompress the hind limb compartments; the muscles were allowed to reperfuse for 45 minutes, followed by intravital video microscopy.
(§3) Rats were randomly assigned to one of four experimental groups: sham (n=4), CS (n=4), CS+CORM-3 (n=8) and CS+iCORM-3 (n=8).
The extensor digitorum longus (EDL) muscle was dissected to the level of its distal tendon, which was tied with a suture and cut from its bony insertion. The animal was transferred onto the stage of an inverted microscope (Nikon™); the EDL was reflected into a saline bath containing 5 μg/ml each of the fluorescent vital dyes bisbenzimide (BB; exc. 343 nm, em. 483 nm) and ethidium bromide (EB; exc. 482 nm, em. 616 nm). BB stains the nuclei of all cells while EB stains the nuclei of only those cells with damaged cell membrane. Thus, EB/BB ratio provided an index of tissue injury.
Microvascular perfusion and leukocytes within the post-capillary venules were recorded by translumination with 20× and 40× objectives, respectively, in five adjacent fields of view. Fluorescence microscopy was used to visualize the BB and EB from the same fields of view that had been selected for the measurement of capillary perfusion. At the conclusion of the experiment, rats were euthanized by an overdose of anesthetic agent.
Capillary perfusion was assessed by counting the number of continuously-perfused (CPC), intermittently-perfused (IPC) and non-perfused (NPC) capillaries that crossed three parallel lines drawn perpendicular to the capillary axis on the video monitor, and was expressed as % of total capillaries. Tissue injury was assessed by counting the number of EB- and BB-labelled nuclei, and expressed as EB/BB ratio. Leukocyte activation was assessed by counting the numbers of rolling and adherent leukocytes in post-capillary venules and expressed per 1000 μm^2. Venular area was measured using ImageJ (NIH, Bethesda, Md.). A leukocyte was considered adherent if it remained stationary for at least 30 seconds, and a cell was considered rolling if it remained in contact with the wall of the vessel during its movement.

[2] = Systemic leukocyte counts, hemoglobin and carboxyhemoglobin in rat CS model
From the text: as §1, §2, §3
Two hours of elevated ICP were followed by fasciotomy, injection of CORM-3 (or iCORM-3) and 45 min reperfusion. CS-associated rise in systemic leukocytes was reversed by CORM-3 application (*p<0.01 from sham; †p<0.05 from CS+iCORM-3). CORM-3 and iCORM-3 caused no changes in systemic levels of COHb. LKC, leukocyte counts; COHb, carboxyhemoglobin.

TNF-α [3] = assay: Serum TNF-α (ELISA) in rat CS model; conditions: 30 and 45 minutes post-fasciotomy, 10 mg/kg IP
Procedure: TNF-α levels were measured from arterial blood samples drawn at 9 time points: (1) baseline, (2) 15 minutes into CS, (3) 45 minutes into CS, (4) 90 minutes into CS, (5) 2 hours into CS-just prior to fasciotomy and CORM-3 (or iCORM-3) injection, (6) 10 minutes post-fasciotomy, (7) 20 minutes post fasciotomy, (8) 30 minutes post fasciotomy, (9) 45 minutes post fasciotomy, just before IVVM. TNF-α was assessed using enzyme-linked immunosorbent assay (ELISA, Pierce Biotechnology, c/o Thermo Scientific, Rockford, Ill.) according to manufacturer's instructions. The TNF-α ELISA was sensitive to less than […].

compartment syndrome [4] = assay: Porcine model of compartment syndrome: PMN activation and capillary perfusion (IVVM); conditions: pig, 6 h elevated ICP, 10 mg/kg
Procedure: (§4) Following the basic surgical setup (anesthesia, intubation, auricular vein and femoral artery catheterization), the animals undergo 6 hours of elevated intra-compartmental pressure (i.e. CS), followed by fasciotomy and reperfusion. The time interval was chosen in order to closely mimic the condition in human patients. CORM-3 (or iCORM-3), 10 mg/kg of animal is applied prior to fasciotomy. Blood is sampled at various time intervals (baseline, 1 hr CS, 2 hr CS, 3 hr CS, 4 hr CS, 5 hr CS, 6 hr CS/fasciotomy, and every 10-15 min post-fasciotomy, for a total of 20 samples per animal), in order to monitor leukocyte activation and serum TNF-α levels. IVVM is carried out at 3 hours post-fasciotomy.

TNF-α [5] = assay: Serum TNF-α time course in porcine model of CS; conditions: pig, 6 h elevated ICP, 10 mg/kg, 3 h reperfusion
Procedure: as §4

compartment syndrome [6] = assay: CatWalk gait assessment in rats after CS without fasciotomy; conditions: rat, 180 min CS, no fasciotomy
Procedure: Animal preparation and synthesis of CORM-3 were similar to Example 3.
Complete inducement of CS occurred at about 180 minutes post induction. The animals were injected at 180 minutes and every 24 hours thereafter.
Quantitative assessment of footfalls and gait in the rats was assessed using CatWalk™, which a system for quantitative assessment of footfalls and gait in rats and mice.

[7] = rat CS model, 10 mg/kg IP at fasciotomy
[8] = rat CS model, CORM-3 versus control
[9] = rat, 2 h elevated ICP, fasciotomy, 10 mg/kg IP, 45 min reperfusion, mean±SEM

Structure (SMILES): NCC(=O)O.[C-]#[O+].[C-]#[O+].[C-]#[O+].[Cl][Ru] [CORM-3, tricarbonylchloro-glycinate-ruthenium(II)]
- Effect on leukocyte adhesion within post-capillary venules ([1]; rat CS model, 10 mg/kg IP): prevent leukocyte adhesion
- Effect on leukocyte rolling ([1]; rat CS model, 10 mg/kg IP): no effect
- Effect on CS-associated microvascular perfusion changes [1, 7]: reversed
- Effect on CS-associated tissue injury [1, 7]: reversed
- Decrease in leukocyte adherence (leukocyte activation) [1, 8]: 8 fold
- Decrease in tissue injury [1, 8]: 4 fold
- Leukocyte adherence in post-capillary venules [1, 9]: 0.6±0.3 leukocytes/30 s/1000 μm^2
- Leukocyte rolling in post-capillary venules [1, 9]: 3.0±0.8 leukocytes/30 s/1000 μm^2
- Muscle injury, EB/BB ratio [1, 9]: 0.07±0.01
- Continuously-perfused capillaries (CPC) ([1]; rat, % of total capillaries, 2 h elevated ICP, fasciotomy, 10 mg/kg IP, 45 min reperfusion, mean±SEM): 57±5%
- Effect on COHb levels ([2]; rat CS model, 10 mg/kg IP): no effect
- Effect on CS-associated rise in systemic leukocyte counts [2, 7]: decrease the severity of this response
- COHb (carboxyhemoglobin) [2, 9]: 1.6 ± 0.1%
- Hemoglobin [2, 9]: 129.5 ± 2.7 g/L
- LKC (systemic leukocyte counts) [2, 9]: 2.3 ± 0.2^† Units × 10^9/L
- Serum TNF-α in post-fasciotomy/reperfusion period (TNF-α [3]): effectively prevented; also recorded: reversed
- Continuously-perfused capillaries (CPC) (compartment syndrome [4]; IVVM 3 h post-fasciotomy): increase
- Intermittently-perfused capillaries (IPC) (compartment syndrome [4]; IVVM 3 h post-fasciotomy): decrease
- Non-perfused capillaries (NPC) (compartment syndrome [4]; IVVM 3 h post-fasciotomy): decrease
- Number of activated PMNs post-fasciotomy (compartment syndrome [4]; fasciotomy, versus iCORM-3): significant decrease
- Serum TNF-α release associated with post-fasciotomy/reperfusion (TNF-α [5]): prevented any TNF-α release
- Static and dynamic gait functional parameters (CatWalk) (compartment syndrome [6]; 10 mg/kg IP at 180 min and every 24 h, relative to iCORM-3): significantly improved
- Weight bearing parameters (CatWalk) (compartment syndrome [6]; multi dose 10 mg/kg IP): improvement
